The text below walks through data of patent US20040076673A1, “Oral pharmaceutical composition containing a block copolymer” (priority 2000, published 2004).

Data set [1] can be described thus: pH shift dissolution method (0.1N HCl, then shift to pH 6.5). The following applies: in vitro tests; with block copolymers versus without. It is filed as physicochemical. How it is done: pH Shift Dissolution Method
The formulations were weighed into hard gelatin capsules (equivalent to 25 mg drug) and dissoluted in 500 ml 0.1N HCl for one hour at 37° C. (paddle speed 100 rpm). A 5 ml sample was taken at 55 minutes and the media replaced. After one hour 10 ml of a 2.5M KH2PO4/16.72% (w/v) NaOH solution was added to the HCl to shift the pH to 6.5. 5 ml samples were then removed with a plastic syringe at 5, 15, 30, 45 and 60 minutes and media replaced after every sampling time point. Each sample was centrifuged (14,000 rpm) at ambient temperature for 15 minutes and then analysed by HPLC using the following conditions: […]

The nature of a further data set: Solubility Measurements. It is filed as physicochemical.

The term solubility denotes the dissolved amount per volume that the medium holds. Read a low solubility as little dissolved substance.

Values after ≈ are worked out from the molar mass of the structure shown.

For `O=C(c1ccc(-c2ccncc2)cc1)N1CCN(S(=O)(=O)c2ccc3cc(Cl)ccc3c2)CC1` [Compound 1, 1-(6-chloronaphth-2-ylsulfonyl)-4-[4-(4-pyridyl)benzoyl] piperazine], in data set [1], the “improvement of maximum supersaturated concentration by use of the polymers” value is listed as 4-10 times. Further, the solubility in “Solubility Measurements” (pH 1.2, simulated gastric fluid) is 250 µg/mL (≈ 508 µM); in “Solubility Measurements” (pH 6.8, aqueous buffer) it was 2 µg/mL (≈ 4.07 µM); in “Solubility Measurements” (water), less than 5 µg/mL.
